How the values were obtained:
ApoA-I mRNA = assay: Quantification of ApoA-I mRNA in HepG2 cells (real-time PCR); type: cell-based; parameters: key: Active: An active compound was defined as one that caused a ≧20% increase in ApoA-I mRNA at a concentration less than or equal to 100 μM; conditions: fold induction relative to DMSO control, concentration less than or equal to 100 μM
Procedure: In this example, ApoA-I mRNA in tissue culture cells was quantitated to measure the transcriptional up-regulation of ApoA-I when treated with a compound of the invention.
HepG2 cells (approximately 2×10^5 per well) were placed in a 24-well plate in approximately 400 μL MEM, supplemented with 0.5% (v/v) FBS, 24 h before addition of the compound of interest. At time of harvesting, the spent media was removed from the HepG2 cells and immediately placed on ice (for immediate use) or at −80° C. (for future use) in ApoA-I and albumin ELISAs. The cells remaining in the plate wells were rinsed in 200 μL PBS. PBS was carefully removed to avoid removing any loosely attached cells.
Once the PBS was removed, 85 μL cell lysis solution was added the cells in each well and incubated for 5-10 minutes at room temperature, to allow for complete cell lysis and detachment. mRNA was then prepared using the “mRNA Catcher PLUS plate” from Invitrogen, according to the protocol supplied. After the last wash, as much wash buffer as possible was aspirated without allowing the wells to dry. Elution Buffer (E3, 80 μL) was then added to each well. mRNA was then eluted by incubating the mRNA Catcher PLUS plate with Elution Buffer for 5 minutes at 68° C. and then immediately placing the plate on ice.
The eluted mRNA isolated was then used in a one-step real-time […] reaction, using components of the Ultra Sense Kit together with Applied Biosystems primer-probe mixes. Real-time PCR data was analyzed, using the Ct values, to determine the fold induction of each unknown sample, relative to the control (that is, relative to the control for each independent DMSO concentration).
An active compound was defined as one that caused a ≧20% increase in ApoA-I mRNA at a concentration less than or equal to 100 μM.

subjects with low HDL-C = conditions: cited from earlier work

melting point [°C]	SMILES	Effect on ApoA-I mRNA levels (ApoA-I mRNA)	increase in the HDL-C level (subjects with low HDL-C) [%]	reduction of the CHD risk (subjects with low HDL-C) [%]
152 to 153	CCC(C)c1ccc(-n2c(-c3cc(C)c(OCCO)c(C)c3)nc3ccccc3c2=O)cc1 (stereo not drawn) [Example 1 and 2, 3-(4-sec-butylphenyl)-2-(4-(2-hydroxyethoxy)-3,5-dimethylphenyl)quinazolin-4(3H)-one]			
195 to 196	CCC(C)c1ccc(-n2c(-c3cc(C)c(OCCO)c(C)c3)nc3ccncc3c2=O)cc1 (stereo not drawn) [Example 5, 3-(4-sec-butylphenyl)-2-(4-(2-hydroxyethoxy)-3,5-dimethylphenyl)pyrido[4,3-d]pyrimidin-4(3H)-one]	Active		
172.8 to 174.9	CCC(C)c1ccc(-n2c(-c3ccc(OCCO)cc3)nc3ccccc3c2=O)cc1 (stereo not drawn) [Example 6, 3-(4-sec-butylphenyl)-2-(4-(2-hydroxyethoxy)phenyl)quinazolin-4(3H)-one]	Active		
235 to 237	CCC(C)c1ccc(-n2c(-c3cc(C)c(OCCO)c(C)c3)nc3cc(S(C)(=O)=O)ccc3c2=O)cc1 (stereo not drawn) [Example 12, 3-(4-sec-butylphenyl)-2-(4-(2-hydroxyethoxy)-3,5-dimethylphenyl)-7-(methylsulfonyl)quinazolin-4(3H)-one]	Active		
152 to 154	CCC(C)c1ccc(-n2c(-c3cc(C)c(OCCO)c(C)c3)nc3ccc(OC)cc3c2=O)cc1 (stereo not drawn) [Example 13, 3-(4-sec-butylphenyl)-2-(4-(2-hydroxyethoxy)-3,5-dimethylphenyl)-6-methoxyquinazolin-4(3H)-one]	Active		
158 to 159	CCC(C)c1ccc(-n2c(-c3cc(C)c(OCCO)c(C)c3)nc3c(OC)cccc3c2=O)cc1 (stereo not drawn) [Example 14, 3-(4-sec-butylphenyl)-2-(4-(2-hydroxyethoxy)-3,5-dimethylphenyl)-8-methoxyquinazolin-4(3H)-one]	Active		
258.8 to 260.2	CCC(C)c1ccc(-n2c(-c3cc(C)c(OCCO)c(C)c3)nc3ccc(S(C)(=O)=O)cc3c2=O)cc1 (stereo not drawn) [Example 15, 3-(4-sec-butylphenyl)-2-(4-(2-hydroxyethoxy)-3,5-dimethylphenyl)-6-(methylsulfonyl)quinazolin-4(3H)-one]	Active		
160 to 162	COc1ccc2nc(-c3cc(C)c(OCCO)c(C)c3)n(-c3ccc(Br)cc3)c(=O)c2c1 [Example 16, 3-(4-bromophenyl)-2-(4-(2-hydroxyethoxy)-3,5-dimethylphenyl)-6-methoxyquinazolin-4(3H)-one]	Active		
100 to 102	COc1cccc2c(=O)n(-c3ccc(Br)cc3)c(-c3cc(C)c(OCCO)c(C)c3)nc12 [Example 17, 3-(4-bromophenyl)-2-(4-(2-hydroxyethoxy)-3,5-dimethylphenyl)-8-methoxyquinazolin-4(3H)-one]	Active		
160 to 162	Cc1cc(-c2nc3ccccc3c(=O)n2-c2ccc(C(C)C)cc2)cc(C)c1OCCO [Example 18, 2-(4-(2-hydroxyethoxy)-3,5-dimethylphenyl)-3-(4-isopropylphenyl)quinazolin-4(3H)-one]	Active		
185 to 186	Cc1cc(-c2nc3c(Cl)cccc3c(=O)n2-c2ccc(Br)cc2)cc(C)c1OCCO [Example 20, 3-(4-bromophenyl)-8-chloro-2-(4-(2-hydroxyethoxy)-3,5-dimethylphenyl)quinazolin-4(3H)-one]	Active		
	CCC(C)c1ccc(-n2c(-c3ccc4[nH]c(CO)cc4c3)nc3ccccc3c2=O)cc1 (stereo not drawn) [Example 82, 3-(4-sec-butylphenyl)-2-(2-(hydroxymethyl)-1H-indol-5-yl)quinazolin-4(3H)-one]	Active		
	Cn1ccc2cc(-c3nc4ccccc4c(=O)n3-c3ccc(Cl)cc3)ccc21 [Example 83, 3-(4-chlorophenyl)-2-(1-methyl-1H-indol-5-yl)quinazolin-4(3H)-one]	Active		
	O=c1c2ccccc2nc(-c2ccc3[nH]ccc3c2)n1-c1ccc(C2CCCC2)cc1 [Example 84, 3-(4-cyclopentylphenyl)-2-(1H-indol-5-yl)quinazolin-4(3H)-one]	Active		
	O=c1c2ccccc2nc(-c2ccc3cc[nH]c3c2)n1-c1ccc(Cl)cc1 [Example 85, 3-(4-chlorophenyl)-2-(1H-indol-6-yl)quinazolin-4(3H)-one]	Active		
	O=c1c2ccccc2nc(-c2cccc3cc[nH]c23)n1-c1ccc(Cl)cc1 [Example 86, 3-(4-chlorophenyl)-2-(1H-indol-7-yl)quinazolin-4(3H)-one]	Active		
	CCC(C)c1ccc(-n2c(-c3ccc4cc[nH]c4c3)nc3ccccc3c2=O)cc1 (stereo not drawn) [Example 87, 3-(4-sec-butylphenyl)-2-(1H-indol-6-yl)quinazolin-4(3H)-one]	Active		
	CCC(C)c1ccc(-n2c(-c3cccc4cc[nH]c34)nc3ccccc3c2=O)cc1 (stereo not drawn) [Example 88, 3-(4-sec-butylphenyl)-2-(1H-indol-7-yl)quinazolin-4(3H)-one]	Active		
	O=c1c2ccccc2nc(-c2cccc3[nH]ccc23)n1-c1ccc(Cl)cc1 [Example 89, 3-(4-chlorophenyl)-2-(1H-indol-4-yl)quinazolin-4(3H)-one]	Active		
	CCC(C)c1ccc(-n2c(-c3cccc4[nH]ccc34)nc3ccccc3c2=O)cc1 (stereo not drawn) [Example 90, 3-(4-sec-butylphenyl)-2-(1H-indol-4-yl)quinazolin-4(3H)-one]	Active		
	Cc1ccc(C)c(OCCCC(C)(C)C(=O)O)c1 [gemfibrozil]		6	22

SMILES	melting point [°C]	Effect on ApoA-I mRNA levels (ApoA-I mRNA)	increase in the HDL-C level (subjects with low HDL-C) [%]	reduction of the CHD risk (subjects with low HDL-C) [%]
Cc1cc(-c2nc3ccccc3c(=O)n2-c2ccc(Br)cc2)cc(C)c1OCCO [Example 3, 3-(4-bromophenyl)-2-(4-(2-hydroxyethoxy)-3,5-dimethylphenyl)quinazolin-4(3H)-one]	164 to 165	Active		
Cc1cc(-c2nc3ccccc3c(=O)n2-c2ccc(F)cc2)cc(C)c1OCCO [Example 7, 3-(4-fluorophenyl)-2-(4-(2-hydroxyethoxy)-3,5-dimethylphenyl)quinazolin-4(3H)-one]	95 to 97	Active		
Cc1cc(-c2nc3ccccc3c(=O)n2-c2ccc(I)cc2)cc(C)c1OCCO [Example 8, 2-(4-(2-hydroxyethoxy)-3,5-dimethylphenyl)-3-(4-iodophenyl)quinazolin-4(3H)-one]	101 to 103	Active		
Cc1cc(-c2nc3ccccc3c(=O)n2-c2ccc(Cl)cc2)cc(C)c1OCCO [Example 10, 3-(4-chlorophenyl)-2-(4-(2-hydroxyethoxy)-3,5-dimethylphenyl)quinazolin-4(3H)-one]	101 to 103	Active		
Cc1cc(-c2nc3ccccc3c(=O)n2-c2ccc(Br)cc2)ccc1OCCO [Example 19, 3-(4-bromophenyl)-2-(4-(2-hydroxyethoxy)-3-methylphenyl)quinazolin-4(3H)-one]	92 to 93	Active		
